{"source": "patent US20140080908A1", "about": "“COMPOSITIONS AND METHODS FOR IMPROVING OR […]-LIKE SYMPTOMS” (PHYTO TECH CORP., priority 2012, published 2014)", "key": {"human bone marrow cells": {"test_system": "human bone marrow cells", "details": "1, 2.5, 5 and 7 sec time points; every time point tested; FIG. 1"}, "C57BL/6J mice [1]": {"test_system": "C57BL/6J mice", "details": "30 mg/kg/day orally for 3 months (90 days); compared to calcium gluconate or vehicle; p<0.05; FIG. 2A", "procedure": "(§1) Vehicle (saline) was administered to the third group of mice as a control. The animals were then subject to TST and FST."}, "C57BL/6J mice [2]": {"test_system": "C57BL/6J mice", "details": "30 mg/kg/day orally for 3 months (90 days); compared to calcium gluconate or vehicle; p<0.05; FIG. 2B", "procedure": "In an FST, each mouse is placed in a separate acrylic glass cylinder that is filled with water (23-25° C.) to a level high enough to prevent the mouse from touching the bottom of the cylinder with his paws or tail, yet low enough to prevent the mouse from escaping through the top opening of the cylinder. The mice are thus forced to swim in the cylinders. […] FST is the most widely used as a screen for acute antidepressants, and the duration of immobility is the main parameter by which the effectiveness of an antidepressant treatment is measured.\nas §1"}, "[3]": {"details": "in vivo; cited from earlier work"}}, "data": [{"smiles": "O=C(O)[C@H](O)[C@@H](O)CO", "note": "(stereo in doubt) [calcium (2R, 3S)-2,3,4-trihydroxybutyric acid]", "values": [{"measurement": "calcium absorption by human bone marrow cells relative to calcium gluconate", "setting": "human bone marrow cells", "value": "approximately three times more"}, {"measurement": "duration of immobility in TST", "setting": "C57BL/6J mice [1]", "value": "significantly decreased duration of immobility"}, {"measurement": "duration of immobility in FST", "setting": "C57BL/6J mice [2]", "value": "significantly decreased duration of immobility"}, {"measurement": "bioavailability compared to calcium gluconate, calcium acetate and calcium carbonate", "setting": "[3]", "value": "higher bioavailability"}]}]}
